Assay results published in ChEMBL document CHEMBL5625191, “A review of progress in o-aminobenzamide-based HDAC inhibitors with dual targeting capabilities for cancer therapy” (Eur J Med Chem, 2023).

Columns and labels:
HCT-116 [1] = assay: Antiproliferative activity against human HCT-116 cells assessed as inhibition of cell growth incubated for 48 hrs by MTT assay; format: functional, cell-based; settings: HCT-116, 48 h
PC-3 = assay: Antiproliferative activity against human PC-3 cells assessed as inhibition of cell growth incubated for 48 hrs by MTT assay; format: functional, cell-based; settings: PC-3, 48 h
Histone deacetylase 3 = Histone deacetylase 3 (Homo sapiens, UniProt O15379); assay: Inhibition of HDAC3 in human HeLa nuclear extract using Boc-Lys(Ac)-AMC or Boc-Lys(Tfa)-AMC as substrate preincubated for 5 mins followed by substrate addition and measured after 30 mins by fluorescence assay; format: cell-free
Histone deacetylase 3, sequence (O15379 whole entry): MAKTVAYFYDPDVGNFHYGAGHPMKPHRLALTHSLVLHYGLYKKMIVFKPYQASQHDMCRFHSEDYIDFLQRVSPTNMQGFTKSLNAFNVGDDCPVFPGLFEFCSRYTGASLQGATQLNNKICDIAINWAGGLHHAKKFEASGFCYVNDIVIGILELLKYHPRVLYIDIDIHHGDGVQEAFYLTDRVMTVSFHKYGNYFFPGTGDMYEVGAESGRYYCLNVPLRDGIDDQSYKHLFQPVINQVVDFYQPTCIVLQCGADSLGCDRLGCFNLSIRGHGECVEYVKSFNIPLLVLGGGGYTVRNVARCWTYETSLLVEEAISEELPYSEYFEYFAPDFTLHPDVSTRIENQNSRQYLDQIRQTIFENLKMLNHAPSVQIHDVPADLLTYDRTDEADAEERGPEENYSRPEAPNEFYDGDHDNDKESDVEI

HeLa = assay: Antiproliferative activity against human HeLa cells assessed as inhibition of cell growth incubated for 48 hrs by MTT assay; format: functional, cell-based
A549 [2] = assay: Antiproliferative activity against human A549 cells assessed as inhibition of cell growth incubated for 48 hrs by MTT assay; format: functional, cell-based; settings: A549, 48 h
HEL = assay: Antiproliferative activity against human HEL cells assessed as inhibition of cell growth incubated for 48 hrs by MTT assay; format: functional, cell-based
MOLT-4 = assay: Antiproliferative activity against human MOLT-4 cells assessed as inhibition of cell growth incubated for 48 hrs by MTT assay; format: functional, cell-based; settings: MOLT-4, 48 h
Jurkat = assay: Antiproliferative activity against human Jurkat cells assessed as inhibition of cell growth incubated for 48 hrs by MTT assay; format: functional, cell-based
Histone deacetylase 2 [3] = target: T1, Histone deacetylase 2 (Homo sapiens, UniProt Q92769); assay: Inhibition of HDAC2 in human HeLa nuclear extract using Boc-Lys(Ac)-AMC or Boc-Lys(Tfa)-AMC as substrate preincubated for 5 mins followed by substrate addition and measured after 30 mins by fluorescence assay; format: cell-free
T1 sequence (Q92769 whole entry): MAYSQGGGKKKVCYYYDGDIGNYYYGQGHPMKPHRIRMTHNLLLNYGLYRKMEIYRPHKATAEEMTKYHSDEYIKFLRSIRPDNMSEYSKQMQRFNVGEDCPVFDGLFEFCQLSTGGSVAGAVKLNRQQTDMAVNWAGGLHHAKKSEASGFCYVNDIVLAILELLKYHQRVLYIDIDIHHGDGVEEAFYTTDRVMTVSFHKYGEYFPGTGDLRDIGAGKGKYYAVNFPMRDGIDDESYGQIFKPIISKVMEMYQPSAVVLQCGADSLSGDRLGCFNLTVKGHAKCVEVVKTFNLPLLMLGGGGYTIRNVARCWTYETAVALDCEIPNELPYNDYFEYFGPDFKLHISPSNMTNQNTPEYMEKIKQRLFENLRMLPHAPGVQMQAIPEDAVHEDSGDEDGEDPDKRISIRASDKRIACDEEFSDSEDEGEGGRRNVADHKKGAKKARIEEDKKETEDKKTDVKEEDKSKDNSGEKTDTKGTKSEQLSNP

Histone deacetylase 1 [4] = target: T2, Histone deacetylase 1 (Homo sapiens, UniProt Q13547); assay: Inhibition of HDAC1 in human HeLa nuclear extract using Boc-Lys(Ac)-AMC or Boc-Lys(Tfa)-AMC as substrate preincubated for 5 mins followed by substrate addition and measured after 30 mins by fluorescence assay; format: cell-free
T2 sequence (Q13547 whole entry): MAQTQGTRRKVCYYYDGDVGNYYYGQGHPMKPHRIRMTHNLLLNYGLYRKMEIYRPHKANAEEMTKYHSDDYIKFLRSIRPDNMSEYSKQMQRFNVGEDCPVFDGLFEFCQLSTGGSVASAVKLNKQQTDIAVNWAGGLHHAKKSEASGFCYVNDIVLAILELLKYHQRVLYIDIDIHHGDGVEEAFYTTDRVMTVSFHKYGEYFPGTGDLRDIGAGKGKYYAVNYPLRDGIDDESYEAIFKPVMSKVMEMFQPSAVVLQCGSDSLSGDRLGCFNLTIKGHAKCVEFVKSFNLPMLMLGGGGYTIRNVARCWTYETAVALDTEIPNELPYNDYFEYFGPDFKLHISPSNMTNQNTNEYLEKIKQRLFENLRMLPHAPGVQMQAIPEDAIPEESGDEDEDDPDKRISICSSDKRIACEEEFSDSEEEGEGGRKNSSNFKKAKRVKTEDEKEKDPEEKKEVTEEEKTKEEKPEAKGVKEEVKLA

HCT-116 [5] = assay: Antiproliferative activity against human HCT-116 cells assessed as inhibition of cell growth; format: functional, cell-based
KYSE-450 = assay: Antiproliferative activity against human KYSE-450 cells assessed as inhibition of cell growth; format: functional, cell-based
Histone deacetylase 1 [6] = target: T2, Histone deacetylase 1; assay: Inhibition of HDAC1 (unknown origin)
MGC-803 = assay: Antiproliferative activity against human MGC-803 cells assessed as inhibition of cell growth; format: functional, cell-based
Tubulin = assay: Inhibition of tubulin polymerization (unknown origin); format: protein-complex assay, Homo sapiens
HCT-116 [7] = assay: Antitumor activity against human HCT-116 cells xenografted in BALB/c mouse assessed tumor growth inhibition at 150 mg/kg, po bid measured for every 3 days; format: functional; settings: HCT-116, 72 h, time 3 day, read-out: TGI
MCF7 = assay: Antiproliferative activity against human MCF7 cells assessed as inhibition of cell growth incubated for 48 hrs by CCK-8 assay; format: functional, cell-based; settings: MCF7, 48 h
[8] = Antiproliferative activity against human Bortezomib-resistant RPMI-8226 cells assessed as inhibition of cell growth incubated for 72 hrs by XTT assay; format: functional, cell-based; settings: Bortezomib-resistant RPMI-8226, 72 h
RPMI-8226 = assay: Antiproliferative activity against human RPMI-8226 cells assessed as inhibition of cell growth incubated for 72 hrs by XTT assay; format: functional, cell-based; settings: RPMI-8226, 72 h
[9] = target: Histone deacetylase (Homo sapiens) (UniProt Q13547+O15379+Q9UBN7+Q92769+Q9UQL6+Q8WUI4+Q9BY41+Q96DB2+P56524+Q9UKV0+Q969S8); assay: Inhibition of HDAC in human RPMI-8226 cells at 10 uM incubated for 8 hrs relative to control; format: cell-based
Histone deacetylase 2 [10] = target: T1, Histone deacetylase 2; assay: Inhibition of HDAC2 (unknown origin)
K562 = assay: Antiproliferative activity against human K562 cells assessed as inhibition of cell growth incubated for 48 hrs by MTT assay; format: functional, cell-based; settings: K562, 48 h
Histone deacetylase [11] = assay: Inhibition of HDAC in human HeLa nuclear extract using Boc-Lys(Ac)-AMC or Boc-Lys(Tfa)-AMC as substrate preincubated for 5 mins followed by substrate addition and measured after 30 mins by fluorescence assay; format: cell-free
Ephrin type-A receptor 2 = Ephrin type-A receptor 2 (Homo sapiens, UniProt P29317); assay: Inhibition of EphA2 (unknown origin) incubated for 30 mins by TR-FRET assay
Ephrin type-A receptor 2, sequence (P29317 whole entry): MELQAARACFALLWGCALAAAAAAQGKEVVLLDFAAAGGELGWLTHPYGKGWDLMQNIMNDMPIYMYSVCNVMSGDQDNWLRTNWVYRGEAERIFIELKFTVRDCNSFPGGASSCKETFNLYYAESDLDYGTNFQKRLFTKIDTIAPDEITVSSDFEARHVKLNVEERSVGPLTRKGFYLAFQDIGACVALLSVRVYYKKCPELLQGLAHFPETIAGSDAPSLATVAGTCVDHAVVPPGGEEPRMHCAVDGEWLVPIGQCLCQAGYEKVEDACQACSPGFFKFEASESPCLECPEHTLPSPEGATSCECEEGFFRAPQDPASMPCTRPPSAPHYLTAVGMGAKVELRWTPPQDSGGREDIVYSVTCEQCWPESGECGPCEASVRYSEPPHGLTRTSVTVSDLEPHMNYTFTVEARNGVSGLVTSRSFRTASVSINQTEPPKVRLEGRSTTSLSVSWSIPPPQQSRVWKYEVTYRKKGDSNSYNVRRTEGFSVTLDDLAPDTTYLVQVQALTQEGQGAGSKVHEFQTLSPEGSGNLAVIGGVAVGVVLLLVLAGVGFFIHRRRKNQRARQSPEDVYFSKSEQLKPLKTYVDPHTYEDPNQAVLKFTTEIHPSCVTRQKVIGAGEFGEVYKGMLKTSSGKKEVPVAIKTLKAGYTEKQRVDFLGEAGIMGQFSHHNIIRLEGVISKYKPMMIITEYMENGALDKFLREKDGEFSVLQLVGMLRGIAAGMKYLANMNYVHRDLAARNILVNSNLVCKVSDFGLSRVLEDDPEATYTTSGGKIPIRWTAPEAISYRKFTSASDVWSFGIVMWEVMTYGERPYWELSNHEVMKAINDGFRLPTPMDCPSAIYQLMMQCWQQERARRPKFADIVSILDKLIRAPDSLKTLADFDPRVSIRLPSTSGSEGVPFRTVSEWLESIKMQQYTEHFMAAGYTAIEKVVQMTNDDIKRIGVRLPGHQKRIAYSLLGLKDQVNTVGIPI

A549 [12] = assay: Antiproliferative activity against human A549 cells assessed as inhibition of cell growth incubated for 48 hrs by CCK-8 assay; format: functional, cell-based; settings: A549, 48 h
CT26 = assay: Antitumor activity against mouse CT26 cells xenografted in mouse assessed as reduction in tumor volume; format: functional; parameters: scale not given: the % may be the effect or the level left
HCT-116 [13] = assay: Antitumor activity against human HCT-116 cells xenografted in BALB/c nude mouse assessed as tumor growth inhibition at 30 mg/kg, po administered for 3 days; format: functional; settings: HCT-116, 72 h, time 3 day, read-out: TGI
HCT-116 [14] = assay: Antitumor activity against human HCT-116 cells xenografted in BALB/c nude mouse assessed as increase in increment ratio at 30 mg/kg, po administered for 3 days; format: functional; settings: time 3 day
Histone deacetylase [15] = assay: Inhibition of HDAC (unknown origin); format: protein assay, Homo sapiens

Row | SMILES | IC50 (HCT-116 [1]) [nM] | IC50 (PC-3) [nM] | IC50 (Histone deacetylase 3) [nM] | IC50 (HeLa) [nM] | IC50 (A549 [2]) [nM] | IC50 (HEL) [nM] | IC50 (MOLT-4) [nM] | IC50 (Jurkat) [nM] | IC50 (Histone deacetylase 2 [3]) [nM] | IC50 (Histone deacetylase 1 [4]) [nM] | further results
1 | Nc1ccccc1NC(=O)CCCCCOc1no[n+]([O-])c1S(=O)(=O)c1ccccc1 | 770 | 2500 | 560 | 1500 | 980 | 410 | 540 | 770 | 1140 | 470 | 
2 | COc1ccc(CN(C(=O)Cc2ccc(C(=O)Nc3ccccc3N)cc2)c2cc(OC)c(OC)c(OC)c2)cc1O |  |  |  |  |  |  |  |  |  |  | IC50 (HCT-116 [5]): 172 nM; IC50 (KYSE-450): 254 nM; IC50 (Histone deacetylase 1 [6]): 525 nM; IC50 (MGC-803): 30 nM; IC50 (Tubulin): 3640 nM
3 | CN1c2ccccc2C(=O)N2[C@H](C(=O)Nc3ccc(C(=O)Nc4ccccc4N)cc3)Cc3c([nH]c4ccccc34)[C@@H]12 |  |  |  |  |  |  |  |  |  |  | inhibition in vivo at 150 mg/kg (HCT-116 [7]): 75.2%; IC50 (MCF7): 18 nM
4 | Nc1ccccc1NC(=O)CCCCCCCOc1no[n+]([O-])c1S(=O)(=O)c1ccccc1 | 790 | 1920 | 500 | 1560 | 1550 | 420 | 720 | 470 | 1200 | 660 | 
5 | CC(C)C[C@@H](NC(=O)[C@H](Cc1ccccc1)NC(=O)c1ccc(C(=O)Nc2ccccc2N)cc1)B1OC2CC3CC(C3(C)C)[C@@]2(C)O1 (some centres undefined) |  |  |  |  |  |  |  |  |  |  | IC50 [8]: 112 nM; IC50 (RPMI-8226): 37.1 nM; inhibition [9]: 33%
6 | COc1ccc2[nH]c3c(c2c1)CCN1C(=O)c2cc(NCc4ccc(C(=O)Nc5ccccc5N)cc4)ccc2N(C)[C@H]31 |  |  |  |  |  |  |  |  |  |  | IC50 (HCT-116 [5]): 7820 nM; IC50 (Histone deacetylase 1 [6]): 2660 nM; IC50 (Histone deacetylase 2 [10]): 9370 nM
7 | Nc1ccccc1NC(=O)Nc1ccc(NC(=O)c2cccnc2)cc1 |  |  |  |  |  |  |  |  |  |  | IC50 (K562): 8360 nM; IC50 (Histone deacetylase [11]): 940 nM; IC50 (Ephrin type-A receptor 2): 680 nM
8 | Cn1cc(-c2ccc(S(=O)(=O)n3ccc(/C=C/C(=O)Nc4ccccc4N)c3)cc2)cn1 [DOMATINOSTAT] |  |  |  |  |  |  |  |  |  |  | IC50 (A549 [12]): 7.8 nM; Activity (CT26): 53%
9 | Nc1ccccc1NC(=O)CCCCOc1no[n+]([O-])c1S(=O)(=O)c1ccccc1 | 930 | 2690 | 620 | 1230 | 1030 | 320 | 590 | 540 | 1460 | 620 | inhibition in vivo at 30 mg/kg (HCT-116 [13]): 36%; T/C (HCT-116 [14]): 57%
10 | CC(C)C[C@@H](NC(=O)[C@H](Cc1ccccc1)NC(=O)c1cnc(C(=O)Nc2ccccc2N)cn1)B1OC2CC3CC(C3(C)C)[C@@]2(C)O1 (some centres undefined) |  |  |  |  |  |  |  |  |  |  | IC50 [8]: 158 nM; IC50 (Histone deacetylase [15]): 23.6 nM; IC50 (RPMI-8226): 9.5 nM; inhibition [9]: 33%
